Earlier results on two compounds are cited in US7572808B2, “Triazolopyridine cannabinoid receptor 1 antagonists” (Bristol-Myers Squibb Company, priority 2005, dated 2009).

Where two headings read alike, the source gives them in different places.

For series [1] the following is noted: human subjects, 16 week trial period, Phase IIb.
For series [2] the following is noted: chronic administration for two weeks.

In the case of `Cc1c(C(=O)NN2CCCCC2)nn(-c2ccc(Cl)cc2Cl)c1-c1ccc(Cl)cc1` [SR-141716], the body weight result in series [1] is reported as “dose-dependently reduced body weight”.
Take `Cc1c(C(=O)NN2CCCCC2)nn(-c2ccc(Cl)cc2Cl)c1-c1ccc(I)cc1` [AM-251]: the body weight entry in series [2] is on record as “substantial body weight reduction”.
